Data from article PMC5613016, “GRL-09510, a Unique P2-Crown-Tetrahydrofuranylurethane -Containing HIV-1 Protease Inhibitor, Maintains Its Favorable Antiviral Activity against Highly-Drug-Resistant HIV-1 Variants in vitro” (Scientific Reports, 2017).
Where two headings read alike, the source gives them in different places.

Assays:
HIV-1APV ^R 5μM [1] = tested on: HIV-1APV ^R 5μM; parameters: method as in earlier work; conditions: and 22, cited from earlier work; for EC50: MT-4 cells, p24 assay, previously reported, read-out: EC50 HIV-1APVR5M; for fold change in EC50 HIV-1APVR5M: compared to HIV-1NL4-3, previously reported data
HIV-1MDR/G [2] = tested on: HIV-1MDR/G; parameters: method as in earlier work; conditions: and 22, cited from earlier work; for EC50: PHA-PBMs, p24 assay, previously reported; for fold change in EC50 HIV-1MDR/G: compared to HIV-1WT/ERS104pre, previously reported data
HIV-1NL4-3 [3] = conditions: MT-4 cells, p24 assay, previously reported; and 22; cited from earlier work
[4] = tested on: HIV-1ERS104pre (wild-type); conditions: PHA-PBMs, p24 assay, previously reported; and 22; read-out: EC50 HIV-1WT/ERS104pre; cited from earlier work
HIV-1_9510 ^R 36P = assay: p24 production inhibition in MT-4 cells; format: cell-based; conditions: for EC50: Human immunodeficiency virus 1, MT4, read-out: EC50 HIV-19510RP36; for fold change of EC50 HIV-19510RP36: compared to EC50 for HIV-1NL4-3, Supplemental Table 3
Procedure: (§1) The susceptibility of HIV-1LAI or HIV-2ROD to various compounds was determined as previously described[20]–[22]. Briefly, MT-2 cells (10^4/ml) were exposed to 100 TCID50 of HIV-1LAI or HIV-2ROD in the presence or absence of various concentrations of compounds in 96-well plates and were incubated at 37 °C for 7 days. After incubation, 100 μl of the medium was removed from each well, 3-(4,5-dimetylthiazol-2-yl)-2,5-diphenyltetrazolium bromide (MTT) solution (10 μl, 7.5 mg/ml in PBS) was added to each well, followed by incubation at 37 °C for 2 h. […] To determine the sensitivity of clinically isolated HIV-1s to compounds, PHA-PBMC (10^6/ml) were exposed to 50 TCID50 of each HIV-1 and cultured in the presence or absence of various concentrations of compounds in 10-fold serial dilutions in 96-well plates. In determining the drug-susceptibility of certain laboratory HIV-1 strains, MT-4 cells were employed as target cells as previously described[23],[24]. MT-4 cells (10^5/ml) were exposed to 100 TCID50 of drug-resistant HIV-1s in the presence or absence of various concentrations of compounds and were incubated at 37 °C. On day 7, the supernatants were harvested and the amounts of p24 were determined by using a fully-automated chemiluminescent enzyme immunoassay system (Lumipulse f: Fujirebio, Tokyo)[35]–[37]. […] All assays were performed in duplicate, and EC50 shown in this report represent average values of two to four independent experiments. PHA-PBMCs were derived from a single donor in each independent experiment. The research protocols described in the present study were carried out in accordance with relevant guidelines and regulations, and were approved in Ethics Committee for Epidemiological and General Research at the Faculty of Life Sciences, Kumamoto University.

HIV-1NL4-3 [5] = assay: p24 production inhibition in MT-4 cells; format: cell-based; conditions: Human immunodeficiency virus 1, MT4, MT-4 cells, p24 Gag production
Procedure: as §1

HIV-1MDRmix DRV ^R 20P [6] = conditions: cited from earlier work
HIV-1APV ^R 5μM [7] = assay: p24 production inhibition in MT-4 cells; format: cell-based; conditions: for EC50: Human immunodeficiency virus 1, MT4, read-out: EC50 HIV-1APV ^R 5μM, MT-4 cells, p24 Gag production
Procedure: as §1

HIV-1ATV ^R 5μM = assay: p24 production inhibition in MT-4 cells; format: cell-based; conditions: for EC50: Human immunodeficiency virus 1, MT4, read-out: EC50 HIV-1ATV ^R 5μM, MT-4 cells, p24 Gag production
Procedure: as §1

HIV-1LPV ^R 5μM = assay: p24 production inhibition in MT-4 cells; format: cell-based; conditions: for EC50: Human immunodeficiency virus 1, MT4, read-out: EC50 HIV-1LPV ^R 5μM, MT-4 cells, p24 Gag production
Procedure: as §1

HIV-1MDR/C = assay: p24 production inhibition in PHA-PBMC; format: cell-based; conditions: for EC50: Human immunodeficiency virus 1, PHA-PBMC, p24 Gag production
Procedure: as §1

HIV-1MDRmix DRV ^R 20P [8] = assay: p24 production inhibition in PHA-PBMC; format: cell-based; conditions: for EC50: Human immunodeficiency virus 1, read-out: EC50 HIV-1MDRmix DRV ^R 20P, PHA-PBMC, p24 Gag production
Procedure: as §1

HIV-1MDR/B = assay: p24 production inhibition in PHA-PBMC; format: cell-based; conditions: for EC50: Human immunodeficiency virus 1, PHA-PBMC, p24 Gag production
Procedure: as §1

HIV-1MDR/G [9] = assay: p24 production inhibition in PHA-PBMC; format: cell-based; conditions: for EC50: Human immunodeficiency virus 1, PHA-PBMC, p24 Gag production
Procedure: as §1

HIV-1MDR/TM = assay: p24 production inhibition in PHA-PBMC; format: cell-based; conditions: for EC50: Human immunodeficiency virus 1, PHA-PBMC, p24 Gag production
Procedure: as §1

[10] = tested on: HIV-1ERS104pre (wild-type); assay: p24 production inhibition in PHA-PBMC; format: cell-based; conditions: Human immunodeficiency virus 1, PHA-PBMC, p24 Gag production
Procedure: as §1

HIV-2ROD = assay: microbe, parasite or virus in culture; format: cell-based; conditions: for EC50: Human immunodeficiency virus 2, MT2, MT-2 cells, 100 TCID50, MTT assay, read-out: EC50 Against HIV-2ROD
Procedure: as §1

HIV-1LAI = assay: microbe, parasite or virus in culture; format: cell-based; conditions: for EC50: Human immunodeficiency virus 1, MT2, MT-2 cells, 100 TCID50, MTT assay, read-out: EC50 Against HIV-1LAI
Procedure: as §1

[11] = Cytotoxicity against MT-2 cells (MTT assay); format: cell-based; conditions: human
Procedure: as §1

[12] = tested on: HIV-1ME46 (subtype B, X4/R5); assay: p24 production inhibition in PHA-PBMC; format: cell-based; conditions: Human immunodeficiency virus 1, PHA-PBMC, p24 Gag production
Procedure: as §1

HIV-1BaL (subtype B, R5) = assay: p24 production inhibition in PHA-PBMC; format: cell-based; conditions: Human immunodeficiency virus 1, PHA-PBMC, p24 Gag production
Procedure: as §1

[13] = tested on: HIV-192UG029 (subtype A, X4); assay: p24 production inhibition in PHA-PBMC; format: cell-based, HIV-1; conditions: Human immunodeficiency virus 1, read-out: EC50 HIV-192UG029 (subtype A, X4)
Procedure: as §1

HIV-1NL4-3 [14] = tested on: HIV-1NL4-3; parameters: method as in PMID 14506019; conditions: HIV-1NL4-3 in MT-4 cells, increasing concentrations; previously reported; cited from earlier work
[15] = number in parentheses, compared to HIV-1NL4-3
[16] = compared to EC50 for HIV-1ERS104pre

| SMILES | EC50 (HIV-1APV ^R 5μM [1]) [nM] | fold change in EC50 HIV-1APVR5M (HIV-1APV ^R 5μM [1]) | EC50 (HIV-1MDR/G [2]) [nM] | fold change in EC50 HIV-1MDR/G (HIV-1MDR/G [2]) | EC50 (HIV-1NL4-3 [3]) [nM] | EC50 [4] [nM] | EC50 (HIV-1_9510 ^R 36P) [nM] | fold change of EC50 HIV-19510RP36 (HIV-1_9510 ^R 36P) | EC50 (HIV-1APV ^R 5μM [7]) [nM] | EC50 (HIV-1ATV ^R 5μM) [nM] | EC50 (HIV-1LPV ^R 5μM) [nM] | EC50 (HIV-1MDR/C) [nM] | EC50 (HIV-1MDRmix DRV ^R 20P [8]) [nM] | EC50 (HIV-1MDR/B) [nM] | EC50 (HIV-1MDR/G [9]) [nM] | EC50 (HIV-1MDR/TM) [nM] | EC50 [10] [nM] | EC50 (HIV-2ROD) [nM] | EC50 (HIV-1LAI) [nM] | CC50 [11] [nM] | further results |
| --- | --- | --- | --- | --- | --- | --- | --- | --- | --- | --- | --- | --- | --- | --- | --- | --- | --- | --- | --- | --- | --- |
| COc1ccc(S(=O)(=O)N(CC(C)C)C[C@@H](O)[C@H](Cc2ccccc2)NC(=O)OC2CO[C@H]3OCC(F)(F)[C@@H]23)cc1 (some centres unmarked) [GRL-04810] | 430 ± 20 | 860 | 4 ± 1 | 2 | 0.5 ± 0.5 | 2.3 ± 0.1 |  |  |  |  |  |  |  |  |  |  |  |  |  |  |  |
| CC(C)(C)NC(=O)[C@@H]1C[C@@H]2CCCC[C@@H]2CN1C[C@@H](O)[C@H](Cc1ccccc1)NC(=O)[C@H](CC(N)=O)NC(=O)c1ccc2ccccc2n1 [SQV, saquinavir] |  |  |  |  |  |  | 41 ± 9 | 2 |  |  |  |  |  |  |  |  |  |  |  |  | EC50 (HIV-1NL4-3 [5]; Supplemental Table 3): 18 ± 1 nM |
| COc1ccc(S(=O)(=O)N(CC(C)C)C[C@@H](O)[C@H](Cc2ccccc2)NC(=O)O[C@H]2CO[C@H]3O[C@@H]4OCC[C@@H]4[C@H]32)cc1 [GRL-0519] | 38 ± 0.9 | 76 | 2.6 ± 1.3 | 4 | 0.5 ± 0.1 | 0.6 ± 0.2 |  |  |  |  |  |  |  |  |  |  |  |  |  |  | EC50 (HIV-1MDRmix DRV ^R 20P [6]; PHA-PBMs, p24 assay, previously reported, read-out: EC50 HIV-1MDRmixDRVR20P): 30 ± 9.8 nM; fold change in EC50 HIV-1MDRmixDRVR20P (HIV-1MDRmix DRV ^R 20P [6]; compared to HIV-1WT/ERS104pre, previously reported data): 50 |
| Cc1cccc(C)c1OCC(=O)N[C@@H](Cc1ccccc1)[C@@H](O)C[C@H](Cc1ccccc1)NC(=O)[C@H](C(C)C)N1CCCNC1=O [LPV, Lopinavir] |  |  |  |  |  |  | 400 ± 20 |  | 400 ± 10 | > 1000 | > 1000 | 390 ± 50 | > 1000 | > 1000 | 180 ± 20 | 550 ± 90 | 28 ± 2 | 21 ± 7 | 23 ± 3 | 26700 ± 4200 |  |
| CC(C)CN(C[C@@H](O)[C@H](Cc1ccccc1)NC(=O)O[C@H]1CCOC1)S(=O)(=O)c1ccc(N)cc1 [APV, Amprenavir] |  |  |  |  |  |  | 270 ± 20 | 9 | > 1000 | 350 ± 70 | > 1000 | 250 ± 50 | > 1000 | 420 ± 50 | 300 ± 90 | 320 ± 50 | 39 ± 5 | 297 ± 174 | 37 ± 7 | 48200 ± 9900 | fold change of EC50 HIV-1APV ^R 5μM (HIV-1APV ^R 5μM [7]; [15]): > 25; EC50 (HIV-1NL4-3 [5]; Table 3): 30 ± 6 nM; fold change of EC50 HIV-1ATV ^R 5μM (HIV-1ATV ^R 5μM; [15]): 9; fold change of EC50 HIV-1LPV ^R 5μM (HIV-1LPV ^R 5μM; [15]): > 25; EC50 [12]: 22 ± 40 nM; fold change of EC50 HIV-1MDR/C (HIV-1MDR/C; [16]): 6; fold change of EC50 HIV-1MDRmix DRV ^R 20P (HIV-1MDRmix DRV ^R 20P [8]; [16]): > 26; fold change of EC50 HIV-1MDR/B (HIV-1MDR/B; [16]): 11; EC50 (HIV-1BaL (subtype B, R5)): 29 ± 2 nM; fold change of EC50 HIV-1MDR/G (HIV-1MDR/G [9]; [16]): 8; fold change of EC50 HIV-1MDR/TM (HIV-1MDR/TM; [16]): 8; EC50 [13]: 41 ± 2 nM; passage at which selection concentration reached 5 µM (HIV-1NL4-3 [14]): ≥ 20; Selectivity Index (CC50/EC50) MT2/HIV-2ROD (HIV-2ROD; ratio of CC50 to EC50 against HIV-2ROD): 162; Selectivity Index (CC50/EC50) MT2/HIV-1LAI (HIV-1LAI; ratio of CC50 to EC50 against HIV-1LAI): 1,303 |
